Columns and labels:
Raji [1] = experiment: IL2 production in PD-L1 positive human Raji cells measured after 24 hrs by Cell titer glo assay
Raji [2] = experiment: IL2 production in PD-L1 negative human Raji cells measured after 24 hrs by Cell titer glo assay
[3] = target: T1, Diacylglycerol kinase alpha (Homo sapiens, UniProt P23743); experiment: Inhibition of DGK alpha (unknown origin)
[4] = Metabolic stability in human liver microsomes assessed as parent compound remaining; assay type: ADME, Microsome
[5] = Metabolic stability in mouse liver microsomes assessed as parent compound remaining; assay type: ADME, Microsome
[6] = target: Diacylglycerol kinase iota (Homo sapiens, UniProt O75912); experiment: Inhibition of human DGK iota using 1, 2-Dilauroyl-sn-glycerol as substrate by ADP-Glo kinase assay
[7] = Inhibition of DGK in human whole blood cell assessed as increase in IFNgamma level incubated for 1 hr followed by anti-human CD3/ antiCD28 mAB stimulation and measure after 24 hrs by AlphaLISA assay; assay type: tissue-based
[8] = target: T1, Diacylglycerol kinase alpha; experiment: Inhibition of human DGK alpha using 1, 2-Dilauroyl-sn-glycerol as substrate by ADP-Glo assay
[9] = target: Diacylglycerol kinase beta (Homo sapiens, UniProt Q9Y6T7); experiment: Inhibition of human DGK beta using 1, 2-Dilauroyl-sn-glycerol as substrate by ADP-Glo assay
[10] = target: Diacylglycerol kinase zeta (Homo sapiens, UniProt Q13574); experiment: Inhibition of human DGK zeta using 1, 2-Dilauroyl-sn-glycerol as substrate by ADP-Glo kinase assay
[11] = target: Diacylglycerol kinase gamma (Homo sapiens, UniProt P49619); experiment: Inhibition of human DGK gamma using 1, 2-Dilauroyl-sn-glycerol as substrate by ADP-Glo assay
[12] = Induction of proliferation of human CD8-positive T cell measured after 24 hrs by Cell titer glo assay
[13] = Inhibition of DGK in human whole blood cell assessed as increase in pERK level incubated for 1 hr followed by anti-human CD3 stimulation and measure after 15 mins by AlphaLISA assay; assay type: tissue-based
[14] = target: T2, Diacylglycerol kinase kappa (Homo sapiens, UniProt Q5KSL6); experiment: Inhibition of human DGK kappa using 1, 2-Dilauroyl-sn-glycerol as substrate by ADP-Glo kinase assay
T2 sequence (Q5KSL6 whole entry): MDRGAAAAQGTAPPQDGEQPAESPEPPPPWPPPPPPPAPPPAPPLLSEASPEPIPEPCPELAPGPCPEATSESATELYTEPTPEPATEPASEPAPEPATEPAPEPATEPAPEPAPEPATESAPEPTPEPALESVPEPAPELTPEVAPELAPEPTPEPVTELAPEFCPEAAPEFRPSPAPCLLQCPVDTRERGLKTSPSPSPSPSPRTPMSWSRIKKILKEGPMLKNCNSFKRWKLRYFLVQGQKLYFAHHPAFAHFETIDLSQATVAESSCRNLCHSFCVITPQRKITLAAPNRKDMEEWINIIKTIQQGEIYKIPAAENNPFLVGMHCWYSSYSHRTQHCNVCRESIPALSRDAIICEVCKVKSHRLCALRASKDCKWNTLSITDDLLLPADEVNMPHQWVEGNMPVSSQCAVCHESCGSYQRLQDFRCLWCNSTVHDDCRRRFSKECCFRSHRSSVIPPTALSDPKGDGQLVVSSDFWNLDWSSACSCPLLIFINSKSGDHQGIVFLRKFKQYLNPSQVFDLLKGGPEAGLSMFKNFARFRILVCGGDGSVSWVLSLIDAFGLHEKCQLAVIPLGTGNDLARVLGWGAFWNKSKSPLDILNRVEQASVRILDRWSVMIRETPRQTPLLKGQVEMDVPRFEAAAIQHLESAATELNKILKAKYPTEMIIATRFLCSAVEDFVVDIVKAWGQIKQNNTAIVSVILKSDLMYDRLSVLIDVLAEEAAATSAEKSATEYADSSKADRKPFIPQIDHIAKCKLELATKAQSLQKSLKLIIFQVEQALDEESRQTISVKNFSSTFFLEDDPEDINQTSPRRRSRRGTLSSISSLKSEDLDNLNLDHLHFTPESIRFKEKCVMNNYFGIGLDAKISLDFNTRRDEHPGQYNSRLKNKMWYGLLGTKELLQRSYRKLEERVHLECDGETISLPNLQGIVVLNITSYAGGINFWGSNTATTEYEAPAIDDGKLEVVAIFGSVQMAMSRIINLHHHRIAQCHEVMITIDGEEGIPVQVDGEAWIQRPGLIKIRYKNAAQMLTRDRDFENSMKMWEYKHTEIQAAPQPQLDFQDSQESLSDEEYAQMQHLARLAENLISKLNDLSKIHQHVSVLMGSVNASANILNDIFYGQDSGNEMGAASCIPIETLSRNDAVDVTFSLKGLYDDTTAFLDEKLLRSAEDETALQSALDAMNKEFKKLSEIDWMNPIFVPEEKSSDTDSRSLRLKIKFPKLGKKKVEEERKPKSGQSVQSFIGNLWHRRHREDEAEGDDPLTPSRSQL

T1 sequence (P23743 whole entry): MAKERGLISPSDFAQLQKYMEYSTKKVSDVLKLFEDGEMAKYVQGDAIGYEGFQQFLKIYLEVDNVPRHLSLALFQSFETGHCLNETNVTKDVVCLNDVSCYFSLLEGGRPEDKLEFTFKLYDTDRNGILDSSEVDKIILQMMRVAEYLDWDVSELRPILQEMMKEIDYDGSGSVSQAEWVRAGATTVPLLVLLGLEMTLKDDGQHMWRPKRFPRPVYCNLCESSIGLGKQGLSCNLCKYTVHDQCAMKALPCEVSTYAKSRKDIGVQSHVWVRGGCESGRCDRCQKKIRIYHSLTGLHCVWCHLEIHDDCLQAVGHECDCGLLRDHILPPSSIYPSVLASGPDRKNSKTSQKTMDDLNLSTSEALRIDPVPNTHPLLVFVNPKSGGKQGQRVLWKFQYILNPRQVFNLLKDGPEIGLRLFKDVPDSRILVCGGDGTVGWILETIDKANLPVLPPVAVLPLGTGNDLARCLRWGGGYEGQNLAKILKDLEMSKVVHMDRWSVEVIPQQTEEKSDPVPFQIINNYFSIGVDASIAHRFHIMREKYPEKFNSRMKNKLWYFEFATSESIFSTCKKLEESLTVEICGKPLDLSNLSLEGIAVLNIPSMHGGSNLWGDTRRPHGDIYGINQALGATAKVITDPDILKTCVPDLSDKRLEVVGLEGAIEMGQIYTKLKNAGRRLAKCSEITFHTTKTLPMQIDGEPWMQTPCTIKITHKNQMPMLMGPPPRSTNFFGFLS
Chain of Diacylglycerol kinase iota (O75912 whole entry): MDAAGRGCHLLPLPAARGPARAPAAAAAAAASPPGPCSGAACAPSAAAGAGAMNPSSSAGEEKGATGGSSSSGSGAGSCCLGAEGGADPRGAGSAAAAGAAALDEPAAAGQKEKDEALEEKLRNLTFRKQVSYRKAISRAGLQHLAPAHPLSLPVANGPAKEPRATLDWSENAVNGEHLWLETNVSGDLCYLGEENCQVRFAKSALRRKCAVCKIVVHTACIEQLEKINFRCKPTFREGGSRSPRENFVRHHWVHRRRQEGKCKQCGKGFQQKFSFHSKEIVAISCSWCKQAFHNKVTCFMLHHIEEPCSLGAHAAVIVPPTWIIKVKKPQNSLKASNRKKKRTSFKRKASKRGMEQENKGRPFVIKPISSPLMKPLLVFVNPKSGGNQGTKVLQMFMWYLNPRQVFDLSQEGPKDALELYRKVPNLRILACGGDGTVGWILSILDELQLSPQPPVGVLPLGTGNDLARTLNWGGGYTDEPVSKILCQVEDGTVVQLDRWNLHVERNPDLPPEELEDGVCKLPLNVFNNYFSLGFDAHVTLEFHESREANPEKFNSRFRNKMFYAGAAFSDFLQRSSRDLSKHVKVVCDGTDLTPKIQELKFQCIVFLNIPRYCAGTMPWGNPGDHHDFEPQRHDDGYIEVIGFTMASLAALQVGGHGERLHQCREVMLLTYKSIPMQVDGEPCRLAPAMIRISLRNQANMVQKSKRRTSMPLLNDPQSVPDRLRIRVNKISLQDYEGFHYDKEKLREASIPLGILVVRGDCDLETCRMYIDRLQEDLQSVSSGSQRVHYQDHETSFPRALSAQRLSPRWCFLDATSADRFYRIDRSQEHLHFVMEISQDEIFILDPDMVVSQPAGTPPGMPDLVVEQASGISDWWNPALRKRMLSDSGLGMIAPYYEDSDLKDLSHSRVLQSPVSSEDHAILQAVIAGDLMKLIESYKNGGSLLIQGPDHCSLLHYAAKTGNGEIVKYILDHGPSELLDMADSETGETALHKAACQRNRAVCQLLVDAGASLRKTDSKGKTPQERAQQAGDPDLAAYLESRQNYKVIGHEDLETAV
Chain of Diacylglycerol kinase zeta (Q13574 whole entry): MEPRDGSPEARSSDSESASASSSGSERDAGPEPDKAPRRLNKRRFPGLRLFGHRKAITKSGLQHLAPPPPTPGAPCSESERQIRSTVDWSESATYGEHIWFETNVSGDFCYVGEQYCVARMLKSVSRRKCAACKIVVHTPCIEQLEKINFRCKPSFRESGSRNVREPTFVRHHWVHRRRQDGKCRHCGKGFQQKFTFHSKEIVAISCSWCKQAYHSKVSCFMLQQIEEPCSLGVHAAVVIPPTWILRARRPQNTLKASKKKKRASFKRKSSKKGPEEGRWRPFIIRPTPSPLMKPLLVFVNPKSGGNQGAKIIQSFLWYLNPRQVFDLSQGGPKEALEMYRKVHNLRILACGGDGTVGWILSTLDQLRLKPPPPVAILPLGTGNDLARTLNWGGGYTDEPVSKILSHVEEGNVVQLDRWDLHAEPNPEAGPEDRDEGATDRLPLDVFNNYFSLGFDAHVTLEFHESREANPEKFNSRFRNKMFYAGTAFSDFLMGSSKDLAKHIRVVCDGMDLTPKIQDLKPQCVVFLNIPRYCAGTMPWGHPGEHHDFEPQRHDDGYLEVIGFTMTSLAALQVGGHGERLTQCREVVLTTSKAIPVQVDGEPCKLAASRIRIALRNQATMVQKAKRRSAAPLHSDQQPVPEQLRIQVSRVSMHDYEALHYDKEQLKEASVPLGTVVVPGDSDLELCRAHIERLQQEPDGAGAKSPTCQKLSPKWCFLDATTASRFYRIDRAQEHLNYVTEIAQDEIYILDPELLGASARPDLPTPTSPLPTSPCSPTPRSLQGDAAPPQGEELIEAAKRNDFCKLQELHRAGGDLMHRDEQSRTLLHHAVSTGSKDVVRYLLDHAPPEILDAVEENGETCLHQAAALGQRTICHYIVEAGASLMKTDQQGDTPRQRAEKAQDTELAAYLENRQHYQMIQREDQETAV
Chain of Diacylglycerol kinase gamma (P49619 whole entry): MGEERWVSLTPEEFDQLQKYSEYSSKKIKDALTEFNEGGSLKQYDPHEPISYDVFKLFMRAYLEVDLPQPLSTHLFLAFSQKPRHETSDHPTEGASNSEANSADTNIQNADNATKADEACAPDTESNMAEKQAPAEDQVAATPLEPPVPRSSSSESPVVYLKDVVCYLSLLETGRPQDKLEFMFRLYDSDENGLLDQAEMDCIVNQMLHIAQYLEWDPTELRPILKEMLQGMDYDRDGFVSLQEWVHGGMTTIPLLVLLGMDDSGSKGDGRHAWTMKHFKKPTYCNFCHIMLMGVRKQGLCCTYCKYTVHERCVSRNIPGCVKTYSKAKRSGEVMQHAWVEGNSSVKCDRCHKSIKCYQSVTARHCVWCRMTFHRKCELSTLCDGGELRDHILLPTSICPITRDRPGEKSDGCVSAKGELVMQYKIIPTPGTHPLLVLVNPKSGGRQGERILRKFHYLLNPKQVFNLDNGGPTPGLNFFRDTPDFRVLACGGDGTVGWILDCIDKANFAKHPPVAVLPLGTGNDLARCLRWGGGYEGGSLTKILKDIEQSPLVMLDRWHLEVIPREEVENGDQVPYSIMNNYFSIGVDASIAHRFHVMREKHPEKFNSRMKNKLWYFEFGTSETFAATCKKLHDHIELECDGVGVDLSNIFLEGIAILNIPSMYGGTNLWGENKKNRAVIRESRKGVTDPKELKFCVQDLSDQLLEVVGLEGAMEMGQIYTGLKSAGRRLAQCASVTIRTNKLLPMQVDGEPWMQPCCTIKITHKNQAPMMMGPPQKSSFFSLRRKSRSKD

EC50 (Raji [1]) | EC50 (Raji [2]) | Stability [4] | Stability [5] | Compound | further results
> 100000 nM | > 100000 nM | – | – | Cn1c(=O)c(C(=O)O)c(N2CCN(C(c3ccccc3)c3ccccc3)CC2)c2ccccc21 | –
– | – | – | – | Cc1nc2sccn2c(=O)c1CCN1CCC(=C(c2ccccc2)c2ccc(F)cc2)CC1 | IC50 [3]: 25400 nM
2600 nM | 1800 nM | – | – | Cn1c(=O)c([N+](=O)[O-])c(N2CCN(C(c3ccc(F)cc3)c3ccc(F)cc3)CC2)c2ccc(F)cc21 | –
340 nM | 490 nM | 89% | 77% | Cn1c(=O)c([N+](=O)[O-])c(N2CCN(C(c3ccc(F)cc3)c3ccc(F)cc3)CC2)c2cc(F)ccc21 | –
1500 nM | 2500 nM | 43% | 8% | Cn1c(=O)c([N+](=O)[O-])c(N2CCN(Cc3ccccc3)CC2)c2cc(F)ccc21 | –
– | – | – | – | O=c1c2ccccc2[nH]c(=S)n1CCN1CCC(=C(c2ccc(F)cc2)c2ccc(F)cc2)CC1 [DIACYLGLYCEROL KINASE INHIBITOR II] | IC50 [6]: > 10000 nM; EC50 [7]: > 10000 nM; IC50 [8]: 4300 nM; IC50 [9]: > 10000 nM; IC50 [10]: > 10000 nM; IC50 [11]: 3400 nM; EC50 [12]: > 10000 nM
> 100000 nM | > 100000 nM | – | – | CCCN1CCN(c2c([N+](=O)[O-])c(=O)n(C)c3ccccc23)CC1 | –
1500 nM | 3700 nM | 86% | 84% | Cn1c(=O)c([N+](=O)[O-])c(N2CCN(C(c3ccc(F)cc3)c3ccc(F)cc3)CC2)c2ccccc21 | –
> 5000 nM | > 16000 nM | 93% | 63% | Cn1c(=O)cc(N2CCN(C(c3ccccc3)c3ccccc3)CC2)c2ccccc21 | –
390 nM | 400 nM | 100% | 43% | COc1ccc2c(n1)c(N1CCN(C(c3ccc(F)cc3)c3ccc(F)cc3)CC1)c(C#N)c(=O)n2C | –
420 nM | 370 nM | 10% | < 1% | C#CCCC1(CCCN2CCN(c3c([N+](=O)[O-])c(=O)n(C)c4ccc(Br)nc34)CC2)N=N1 | –
4100 nM | 20000 nM | 49% | 52% | CCOC(=O)c1c(N2CCN(C(c3ccccc3)c3ccccc3)CC2)c2ccccc2n(C)c1=O | –
6390 nM | 9280 nM | 25% | 4% | CC(c1ccccc1)N1CCN(c2c([N+](=O)[O-])c(=O)n(C)c3ccccc23)CC1 (stereo not drawn) | –
190 nM | 67 nM | 92% | 80% | Cn1c(=O)c(C#N)c(N2CCN(C(c3ccc(F)cc3)c3ccc(F)cc3)CC2)c2nc(C#N)ccc21 | –
630 nM | 1200 nM | 79% | 8% | COc1ccc2c(c1)c(N1CCN(C(c3ccc(F)cc3)c3ccc(F)cc3)CC1)c([N+](=O)[O-])c(=O)n2C | –
– | – | – | – | Cc1nc2sccn2c(=O)c1CCN1CCC(=C(c2ccc(F)cc2)c2ccc(F)cc2)CC1 [RITANSERIN] | IC50 [6]: > 10000 nM; IC50 [8]: > 5000 nM; IC50 [9]: > 10000 nM; IC50 [10]: > 10000 nM; IC50 [11]: > 10000 nM; EC50 [12]: > 10000 nM; EC50 [13]: > 20000 nM; IC50 [3]: 15100 nM
8500 nM | 13000 nM | – | – | CC(=O)c1c(N2CCN(C(c3ccccc3)c3ccccc3)CC2)c2ccccc2n(C)c1=O | –
– | – | – | – | O=C1/C(=C/C=C/c2ccco2)SC(=S)N1NS(=O)(=O)c1ccccc1 | IC50 [8]: 600 nM
130 nM | 120 nM | 97% | 93% | Cn1c(=O)c([N+](=O)[O-])c(N2CCN(C(c3ccc(F)cc3)c3ccc(F)cc3)CC2)c2cc(C#N)ccc21 | IC50 [6]: 6200 nM; IC50 [8]: 34 nM; IC50 [10]: 10000 nM
> 33000 nM | > 100000 nM | – | – | O=c1[nH]c2ccccc2c(N2CCN(C(c3ccc(F)cc3)c3ccc(F)cc3)CC2)c1[N+](=O)[O-] | –
1370 nM | 1240 nM | – | – | Cn1c(=O)c(C#N)c(N2CCN(C(c3ccccc3)c3ccccc3)CC2)c2ccccc21 | –
> 100000 nM | > 100000 nM | 28% | 6% | Cn1c(=O)c([N+](=O)[O-])c(N2CCN(CCc3ccccc3)CC2)c2ccccc21 | –
> 100000 nM | > 100000 nM | – | – | CCn1c(=O)c([N+](=O)[O-])c(N2CCN(C(c3ccc(F)cc3)c3ccc(F)cc3)CC2)c2ccccc21 | –
3200 nM | 2400 nM | 93% | 82% | Cn1c(=O)c([N+](=O)[O-])c(N2CCN(C(c3ccccc3)c3ccccc3)CC2)c2ccccc21 | IC50 [6]: > 10000 nM; EC50 [7]: > 20000 nM; IC50 [8]: 15 nM; IC50 [9]: 2500 nM; IC50 [10]: > 10000 nM; IC50 [11]: 1900 nM; EC50 [13]: > 20000 nM; IC50 [14]: > 10000 nM
7100 nM | 5800 nM | 75% | 63% | Cn1c(=O)c(C(=O)C(F)(F)F)c(N2CCN(C(c3ccccc3)c3ccccc3)CC2)c2ccccc21 | –
560 nM | 840 nM | 100% | 63% | Cn1c(=O)c([N+](=O)[O-])c(N2CCN(C(c3ccc(F)cc3)c3ccc(F)cc3)CC2)c2cnccc21 | –
670 nM | 760 nM | 69% | 5% | CN(C)c1ccc2c(c1)c(N1CCN(C(c3ccc(F)cc3)c3ccc(F)cc3)CC1)c([N+](=O)[O-])c(=O)n2C | –
290 nM | 310 nM | 92% | 88% | Cn1c(=O)c([N+](=O)[O-])c(N2CCN(C(c3ccc(F)cc3)c3ccc(F)cc3)CC2)c2ncccc21 | IC50 [6]: 1000 nM; IC50 [8]: 53 nM; IC50 [10]: 2700 nM
610 nM | 1100 nM | 84% | – | Cn1c(=O)c(C#N)c(N2CCN(C(c3ccc(F)cc3)c3ccc(F)cc3)CC2)c2cc(F)ccc21 | –
7700 nM | 13000 nM | – | – | Cn1c(=O)c([N+](=O)[O-])c(N2CCN(C(c3ccc(F)cc3)c3ccc(F)cc3)CC2)c2cccnc21 | –

From ChEMBL document CHEMBL5360601, “Discovery of Potent, Dual-Inhibitors of Diacylglycerol Kinases Alpha and Zeta Guided by Phenotypic Optimization” (ACS Med Chem Lett, 2023)
